This passage reports IC50 results from BindingDB's records for doi:10.1021/jm058013g (Universidad San Pablo Ceu, 2005).

Cyclin-dependent kinase 1/G2/mitotic-specific cyclin-B, sequence (Q9DGD3 whole entry): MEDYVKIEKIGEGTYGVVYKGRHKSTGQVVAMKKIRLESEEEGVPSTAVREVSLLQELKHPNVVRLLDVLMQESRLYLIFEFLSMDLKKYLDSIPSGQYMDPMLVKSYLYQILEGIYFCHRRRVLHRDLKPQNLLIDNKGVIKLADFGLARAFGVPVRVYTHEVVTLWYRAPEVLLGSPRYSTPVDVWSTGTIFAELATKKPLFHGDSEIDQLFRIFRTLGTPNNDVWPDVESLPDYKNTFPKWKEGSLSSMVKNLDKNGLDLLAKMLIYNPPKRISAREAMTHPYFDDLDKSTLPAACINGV
Cyclin-dependent kinase 1/G2/mitotic-specific cyclin-B, sequence (P15206 whole entry): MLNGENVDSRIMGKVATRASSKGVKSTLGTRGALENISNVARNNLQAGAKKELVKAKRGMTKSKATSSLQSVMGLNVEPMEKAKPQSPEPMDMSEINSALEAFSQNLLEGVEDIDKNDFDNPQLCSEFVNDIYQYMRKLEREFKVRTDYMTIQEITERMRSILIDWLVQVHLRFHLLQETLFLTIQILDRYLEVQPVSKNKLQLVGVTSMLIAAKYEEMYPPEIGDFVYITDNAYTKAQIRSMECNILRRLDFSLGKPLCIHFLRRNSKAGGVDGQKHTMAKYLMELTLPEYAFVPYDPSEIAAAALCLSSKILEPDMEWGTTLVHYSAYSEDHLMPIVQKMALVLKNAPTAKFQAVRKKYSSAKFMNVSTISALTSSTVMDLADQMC

One test has as its target Cyclin-dependent kinase 1/G2/mitotic-specific cyclin-B (Marthasterias glacialis, UniProt P15206+Q9DGD3). Put plainly: Kinase Inhibition Assay. The settings on record: 30 °C.
The compound `CC(=O)n1nc(N)c2c(-c3ccccc3)c(-c3ccccc3)nnc21` [1-{3-amino-4,5-diphenyl-1H-pyrazolo[3,4-c]pyridazin-1-yl}ethan-1-one] had an IC50 of over 50 µM.
On to `Nc1nn(CCOCCO)c2nnc(-c3ccccc3)c(-c3ccccc3)c12` [2-[2-(3-Amino-4,5-diphenyl-1H-pyrazolo[3,4-c]pyridazin-1-yl)ethoxy]ethanol], for which the IC50 is over 50 µM.
As for `Nc1nn(COCCO)c2nnc(-c3ccccc3)c(-c3ccccc3)c12` [2-[(3-Amino-4,5-diphenyl-1H-pyrazolo[3,4-c]pyridazin-1-yl)methoxy]ethanol], the concentration for half-maximal inhibition (IC50) was over 50 µM.
`CC(=O)Nc1nn(C(C)=O)c2nnc(-c3ccccc3)c(-c3ccccc3)c12` [3-Acetamido-1-acetyl-4,5-diphenyl-1H-pyrazolo[3,4-c]-pyridazine]: the concentration for half-maximal inhibition (IC50) is over 50 µM.
On the same count and under the same terms, the figure for `Nc1nn(Cc2ccccc2)c2nnc(-c3ccccc3)c(-c3ccccc3)c12` [3-Amino-1-benzyl-4,5-diphenyl-1H-pyrazolo[3,4-c]pyridazine] is over 50 µM.
Still for that read-out and setting: the figure for `CC/N=C(\S)Nc1[nH]nc2nnc(-c3ccco3)cc12` [3-ethyl-1-[5-(furan-2-yl)-1H-pyrazolo[3,4-c]pyridazin-3-yl]thiourea] is over 50 µM.
Compound `Oc1[nH]nc2nnc(-c3ccccc3)c(-c3ccccc3)c12` [4,5-diphenyl-1H-pyrazolo[3,4-c]pyridazin-3-ol] registered an IC50 of over 50 µM.
`CC(=O)Nc1n[nH]c2nnc(-c3ccccc3)c(-c3ccccc3)c12` [N-{4,5-diphenyl-1H-pyrazolo[3,4-c]pyridazin-3-yl}acetamide] gave a 50% inhibitory concentration (IC50) of over 50 µM.

Staying with this test, now noted: pH 7.2; 30 °C.
The compound `Nc1n[nH]c2nnc(-c3ccc(-c4ccccc4)cc3)c(-c3ccc(-c4ccccc4)cc3)c12` [3-Amino-4,5-bis(4-biphenyl)-1H-pyrazolo[3,4-c]pyridazine] displayed an IC50 of over 50 µM.
The same measure, in the same setting: then `Nc1ccc(-c2nnc3[nH]nc(N)c3c2-c2ccc(N)cc2)cc1` [3-Amino-4,5-bis(p-aminophenyl)-1H-pyrazolo[3,4-c]-pyridazine], with over 50 µM; and `COc1ccc(-c2nnc3[nH]nc(N)c3c2-c2ccc(OC)cc2)cc1` [3-Amino-4,5-bis(p-methoxyphenyl)-1H-pyrazolo[3,4-c]-pyridazine], with 15 µM; and `Nc1n[nH]c2nnc(-c3ccc(C(F)(F)F)cc3)c(-c3ccc(C(F)(F)F)cc3)c12` [3-Amino-4,5-bis(p-trifluoromethylphenyl)-1H-pyrazolo-[3,4-c]pyridazine], with over 50 µM.
With `Nc1n[nH]c2nnc(-c3ccc([N+](=O)[O-])cc3)c(-c3ccc([N+](=O)[O-])cc3)c12` [4,5-bis(4-nitrophenyl)-1H-pyrazolo[3,4-c]pyridazin-3-amine], the concentration for half-maximal inhibition (IC50) was over 50 µM.
As to `CC(C)(C)c1ccc(-c2nnc3[nH]nc(N)c3c2-c2ccc(C(C)(C)C)cc2)cc1` [4,5-bis(4-tert-butylphenyl)-1H-pyrazolo[3,4-c]pyridazin-3-amine], the IC50 was over 50 µM.
`Nc1n[nH]c2nnc(-c3ccccn3)c(-c3ccccn3)c12` [4,5-bis(pyridin-2-yl)-1H-pyrazolo[3,4-c]pyridazin-3-amine]: the IC50 is over 50 µM.
Still for that read-out and setting: the figure for `Cc1n[nH]c2nnc(N)c-2c1C` [4,5-dimethyl-1H-pyrazolo[3,4-c]pyridazin-3-amine] is over 50 µM; for `Nc1n[nH]c2nncc(-c3ccccc3)c12` [4-phenyl-1H-pyrazolo[3,4-c]pyridazin-3-amine] it is over 50 µM; for `Cc1n[nH]c2nnc(N)c-2c1-c1ccccc1` [5-methyl-4-phenyl-1H-pyrazolo[3,4-c]pyridazin-3-amine] it is over 50 µM.
Regarding `Nc1n[nH]c2nnc3c4ccccc4c4ccccc4c3c12` [17,18,20,21-tetraazapentacyclo[12.7.0.0^{2,7}.0^{8,13}.0^{15,19}]henicosa-1(21),2,4,6,8,10,12,14,16,19-decaen-16-amine], the half-maximal inhibitory concentration (IC50) was over 50 µM.
As for `Nc1n[nH]c2nnc(-c3ccccc3)cc12` [Pyrazolopyridazine deriv. 1n], the concentration for half-maximal inhibition (IC50) was 4 µM.
